Assay results reported in the NIST ThermoML archive (doi:10.1021/acs.jced.8b00157).
Numbers after ± are expanded uncertainties.

Test: an = ratio of the nth substance listed
Settings: 100 kPa, Liquid, Buoyancy - hydrostatic balance

## [F][Al]([F])[F] [aluminum fluoride] + [F-].[K+]
1068.5 K, a2 = 1.3
  mass density: 1772 ± 10 kg/m3
1068.7 K, a2 = 1.5
  mass density: 1790 ± 10 kg/m3
1069.1 K, a2 = 1.5
  mass density: 1790 ± 10 kg/m3
1069.3 K, a2 = 1.3
  mass density: 1772 ± 10 kg/m3
1069.4 K, a2 = 1.3
  mass density: 1771 ± 10 kg/m3
1069.6 K, a2 = 1.3
  mass density: 1771 ± 10 kg/m3
1069.6 K, a2 = 1.5
  mass density: 1790 ± 10 kg/m3
1069.9 K, a2 = 1.5
  mass density: 1789 ± 10 kg/m3
1070.1 K, a2 = 1.3
  mass density: 1771 ± 10 kg/m3
1070.2 K, a2 = 1.5
  mass density: 1789 ± 10 kg/m3
1070.5 K, a2 = 1.3
  mass density: 1771 ± 10 kg/m3
1070.7 K, a2 = 1.5
  mass density: 1788 ± 10 kg/m3
1071.1 K, a2 = 1.5
  mass density: 1788 ± 10 kg/m3
1071.2 K, a2 = 1.3
  mass density: 1770 ± 11 kg/m3
1071.3 K, a2 = 1.3
  mass density: 1770 ± 11 kg/m3
1071.4 K, a2 = 1.5
  mass density: 1788 ± 10 kg/m3
1071.9 K, a2 = 1.3
  mass density: 1769 ± 11 kg/m3
1071.9 K, a2 = 1.5
  mass density: 1787 ± 10 kg/m3
1072 K, a2 = 1.3
  mass density: 1769 ± 11 kg/m3
1072.3 K, a2 = 1.5
  mass density: 1787 ± 10 kg/m3
1072.6 K, a2 = 1.3
  mass density: 1768 ± 11 kg/m3
1072.7 K, a2 = 1.3
  mass density: 1768 ± 11 kg/m3
1072.7 K, a2 = 1.5
  mass density: 1787 ± 10 kg/m3
1073 K, a2 = 1.5
  mass density: 1787 ± 10 kg/m3
1073.4 K, a2 = 1.3
  mass density: 1768 ± 11 kg/m3
1073.4 K, a2 = 1.5
  mass density: 1787 ± 10 kg/m3
1073.7 K, a2 = 1.5
  mass density: 1786 ± 10 kg/m3
1073.8 K, a2 = 1.3
  mass density: 1767 ± 11 kg/m3
1073.9 K, a2 = 1.3
  mass density: 1767 ± 11 kg/m3
1074.1 K, a2 = 1.5
  mass density: 1786 ± 10 kg/m3
1074.5 K, a2 = 1.5
  mass density: 1786 ± 10 kg/m3
1074.7 K, a2 = 1.3
  mass density: 1766 ± 11 kg/m3
1074.9 K, a2 = 1.5
  mass density: 1786 ± 10 kg/m3
1075.2 K, a2 = 1.5
  mass density: 1785 ± 10 kg/m3
1075.3 K, a2 = 1.3
  mass density: 1766 ± 11 kg/m3
1075.4 K, a2 = 1.5
  mass density: 1785 ± 10 kg/m3
1075.5 K, a2 = 1.3
  mass density: 1766 ± 11 kg/m3
1075.6 K, a2 = 1.5
  mass density: 1784 ± 10 kg/m3
1076 K, a2 = 1.3
  mass density: 1765 ± 11 kg/m3
1076.2 K, a2 = 1.5
  mass density: 1784 ± 10 kg/m3
1076.4 K, a2 = 1.3
  mass density: 1765 ± 11 kg/m3
1076.5 K, a2 = 1.3
  mass density: 1765 ± 11 kg/m3
1076.6 K, a2 = 1.5
  mass density: 1784 ± 10 kg/m3
1076.7 K, a2 = 1.3
  mass density: 1765 ± 11 kg/m3
1077 K, a2 = 1.5
  mass density: 1784 ± 10 kg/m3
1077.3 K, a2 = 1.5
  mass density: 1783 ± 10 kg/m3
1077.4 K, a2 = 1.3
  mass density: 1763 ± 11 kg/m3
1077.7 K, a2 = 1.5
  mass density: 1783 ± 10 kg/m3
1078.1 K, a2 = 1.5
  mass density: 1783 ± 10 kg/m3
1078.2 K, a2 = 1.3
  mass density: 1762 ± 11 kg/m3
1078.3 K, a2 = 1.3
  mass density: 1762 ± 11 kg/m3
1078.3 K, a2 = 1.5
  mass density: 1782 ± 10 kg/m3
1078.4 K, a2 = 1.3
  mass density: 1761 ± 11 kg/m3
1078.7 K, a2 = 1.5
  mass density: 1782 ± 10 kg/m3
1079.1 K, a2 = 1.3
  mass density: 1761 ± 11 kg/m3
1079.1 K, a2 = 1.5
  mass density: 1782 ± 10 kg/m3
1079.4 K, a2 = 1.5
  mass density: 1782 ± 10 kg/m3
1079.5 K, a2 = 1.3
  mass density: 1760 ± 11 kg/m3
1079.7 K, a2 = 1.3
  mass density: 1760 ± 11 kg/m3
1079.7 K, a2 = 1.5
  mass density: 1781 ± 10 kg/m3
1080.2 K, a2 = 1.5
  mass density: 1781 ± 10 kg/m3
1080.5 K, a2 = 1.5
  mass density: 1780 ± 10 kg/m3
1080.7 K, a2 = 1.3
  mass density: 1760 ± 11 kg/m3
1080.8 K, a2 = 1.3
  mass density: 1759 ± 11 kg/m3
1081 K, a2 = 1.5
  mass density: 1780 ± 10 kg/m3
1081.2 K, a2 = 1.3
  mass density: 1759 ± 11 kg/m3
1081.3 K, a2 = 1.5
  mass density: 1780 ± 10 kg/m3
1081.4 K, a2 = 1.3
  mass density: 1759 ± 11 kg/m3
1081.6 K, a2 = 1.3
  mass density: 1758 ± 11 kg/m3
1081.7 K, a2 = 1.3
  mass density: 1757 ± 11 kg/m3
1081.8 K, a2 = 1.5
  mass density: 1780 ± 10 kg/m3
1082.1 K, a2 = 1.5
  mass density: 1779 ± 10 kg/m3
1082.4 K, a2 = 1.3
  mass density: 1758 ± 11 kg/m3
1082.5 K, a2 = 1.5
  mass density: 1779 ± 10 kg/m3
1082.7 K, a2 = 1.3
  mass density: 1757 ± 11 kg/m3
1082.8 K, a2 = 1.3
  mass density: 1757 ± 11 kg/m3
1082.8 K, a2 = 1.5
  mass density: 1779 ± 10 kg/m3
1083.2 K, a2 = 1.5
  mass density: 1779 ± 10 kg/m3
1083.6 K, a2 = 1.5
  mass density: 1778 ± 10 kg/m3
1083.9 K, a2 = 1.3
  mass density: 1756 ± 11 kg/m3
1083.9 K, a2 = 1.5
  mass density: 1778 ± 10 kg/m3
1084.1 K, a2 = 1.3
  mass density: 1756 ± 11 kg/m3
1084.3 K, a2 = 1.5
  mass density: 1778 ± 10 kg/m3
1084.4 K, a2 = 1.3
  mass density: 1756 ± 11 kg/m3
1084.8 K, a2 = 1.5
  mass density: 1778 ± 10 kg/m3
1084.9 K, a2 = 1.3
  mass density: 1756 ± 10 kg/m3
1085.1 K, a2 = 1.5
  mass density: 1777 ± 10 kg/m3
1085.4 K, a2 = 1.3
  mass density: 1755 ± 10 kg/m3
1085.5 K, a2 = 1.5
  mass density: 1777 ± 10 kg/m3
1085.6 K, a2 = 1.3
  mass density: 1755 ± 10 kg/m3
1085.9 K, a2 = 1.5
  mass density: 1776 ± 10 kg/m3
1086.2 K, a2 = 1.3
  mass density: 1754 ± 10 kg/m3
1086.4 K, a2 = 1.3
  mass density: 1754 ± 11 kg/m3
1086.4 K, a2 = 1.5
  mass density: 1776 ± 10 kg/m3
1086.6 K, a2 = 1.5
  mass density: 1776 ± 10 kg/m3
1086.9 K, a2 = 1.3
  mass density: 1754 ± 11 kg/m3
1087 K, a2 = 1.3
  mass density: 1754 ± 11 kg/m3
1087.1 K, a2 = 1.5
  mass density: 1776 ± 10 kg/m3
1087.6 K, a2 = 1.5
  mass density: 1775 ± 10 kg/m3
1087.7 K, a2 = 1.3
  mass density: 1753 ± 10 kg/m3
1088 K, a2 = 1.3
  mass density: 1753 ± 10 kg/m3
1088 K, a2 = 1.5
  mass density: 1775 ± 10 kg/m3
1088.2 K, a2 = 1.3
  mass density: 1753 ± 10 kg/m3
1088.3 K, a2 = 1.3
  mass density: 1752 ± 10 kg/m3
1088.4 K, a2 = 1.5
  mass density: 1775 ± 10 kg/m3
1088.8 K, a2 = 1.3
  mass density: 1752 ± 10 kg/m3
1088.8 K, a2 = 1.5
  mass density: 1775 ± 10 kg/m3
1089.2 K, a2 = 1.5
  mass density: 1774 ± 10 kg/m3
1089.3 K, a2 = 1.3
  mass density: 1751 ± 10 kg/m3
1089.6 K, a2 = 1.5
  mass density: 1774 ± 10 kg/m3
1089.7 K, a2 = 1.3
  mass density: 1751 ± 11 kg/m3
1089.9 K, a2 = 1.5
  mass density: 1774 ± 10 kg/m3
1090.4 K, a2 = 1.3
  mass density: 1751 ± 11 kg/m3
1090.4 K, a2 = 1.5
  mass density: 1774 ± 10 kg/m3
1090.5 K, a2 = 1.3
  mass density: 1751 ± 11 kg/m3
1090.7 K, a2 = 1.5
  mass density: 1773 ± 10 kg/m3
1091 K, a2 = 1.3
  mass density: 1750 ± 11 kg/m3
1091.1 K, a2 = 1.5
  mass density: 1773 ± 10 kg/m3
